The test deals with SSTR2 (Homo sapiens, UniProt P30874). Description: SSTR binding affinity by radioligand binding competition assay ([125I]-Tyr11-Somatostatin, membrane extracts).
[1] abbreviates: radioligand competition, [125I]-Tyr11-Somatostatin 0.1 nM, membrane extracts; Ki from IC50 by Cheng Prusoff; read-out: SSTR2 Ki.
Setting [2] is: read-out: SSTR2 Ki; radioligand competition, [125I]-Tyr11-Somatostatin 0.1 nM, membrane extracts; Ki from IC50 by Cheng Prusoff.

These results are taken from patent US20250222146A1, “Radiopharmaceuticals Targeting Somatostatin Receptor 2 and Uses Thereof” (RayzeBio, Inc., priority 2023, published 2025).

What is called Ki is a measure of affinity in units of concentration, obtained from inhibition or displacement.

Molecules are shown by their SMILES. Read-outs that look alike come from different tables or passages of the source. Numbered stars: 1 amine (or outer) side, 2 acyl side, 3 side chain; on linkers, the order of the positions; unused ones are H or OH. Square brackets hold non-standard residues; d marks the D form. Side chains are listed from the residue outwards. Peptide text beside a SMILES is read from it. * marks the point of attachment. ξ: configuration not given here. DOTA(Lu)NH(CH2)6NHCOCH2 = O=C(CN1CCN2CCN3CCN(CC1)CC(=O)[O][Lu]([O]C(=O)C2)[O]C(=O)C3)NCCCCCCNC(=O)C*; DOTA(Lu) = O=C1CN2CCN3CCN(CC(=O)*)CCN(CC2)CC(=O)[O][Lu]([O]1)[O]C(=O)C3; Ala(piperidin-4-yl) = O=C([C@H](CC1CCN([*:3])CC1)N[*:1])[*:2]; DOTA = O=C(O)CN1CCN(CC(=O)O)CCN(CC(=O)*)CCN(CC(=O)O)CC1; dTrp(βS-Me) = C[C@@H](c1c[nH]c2ccccc12)[C@@H](N)C(=O)O; N(6-aminohexyl)Gly = O=C(CN(CCCCCCN[*:3])[*:1])[*:2]; Ala(piperazin-1-yl) = N[C@@H](CN1CCNCC1)C(=O)O; Tyr(Ph) = N[C@@H](Cc1ccc(Oc2ccccc2)cc1)C(=O)O; NOTA = O=C(O)CN1CCN(CC(=O)O)CCN(CC(=O)*)CC1; X16 = NC1CCC(C[C@H](N[*:1])C(=O)[*:2])CC1; dTpi = O=C(O)[C@H]1Cc2c([nH]c3ccccc23)CN1; Dip = N[C@H](C(=O)O)C(c1ccccc1)c1ccccc1; Lys(5ξ-OH) = NCC(O)CC[C@H](N)C(=O)O; Ethylenediamine = C(CN[*:2])N[*:1]; Hyp = O=C(O)[C@@H]1C[C@@H](O)CN1; Trx = NC[C@H]1CC[C@H](C(=O)O)CC1; X13 = NCCCCN(N[*:1])C(=O)[*:2]; dPhg = N[C@@H](C(=O)O)c1ccccc1; NMehCys = CN[C@@H](CCS)C(=O)O; NMeK = CN[C@@H](CCCCN)C(=O)O; NMeDap = CN[C@@H](CN)C(=O)O; CO = O=C([*:1])[*:2]; Ava = NCCCCC(=O)O; Bn = c1ccc(C*)cc1; GABA = NCCCC(=O)O; βAla = NCCC(=O)O Where only a bound is given, the exact number is not on record here.

Chain of SSTR2 (P30874 whole entry): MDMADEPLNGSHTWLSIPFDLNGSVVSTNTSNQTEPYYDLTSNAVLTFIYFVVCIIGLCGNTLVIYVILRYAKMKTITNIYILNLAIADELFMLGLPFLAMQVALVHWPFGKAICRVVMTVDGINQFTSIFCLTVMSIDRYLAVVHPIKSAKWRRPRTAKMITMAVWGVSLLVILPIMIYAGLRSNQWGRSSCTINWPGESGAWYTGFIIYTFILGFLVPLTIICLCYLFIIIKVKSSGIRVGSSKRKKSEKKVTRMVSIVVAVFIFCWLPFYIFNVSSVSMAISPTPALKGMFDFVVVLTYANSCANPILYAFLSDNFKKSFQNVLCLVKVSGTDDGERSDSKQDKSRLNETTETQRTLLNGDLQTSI

Regarding `C[C@@H](O)[C@@H]1NC(=O)[C@H](CC2CCNCC2)NC(=O)[C@H]2Cc3c([nH]c4ccccc34)CN2C(=O)[C@H](Cc2ccc(O)cc2)NC(=O)[C@H](CCCCNC(=O)CN2CCN3CCN4CCN(CC2)CC(=O)[O][Lu]([O]C(=O)C3)[O]C(=O)C4)N(C)C(=O)[C@H](Cc2ccccc2)NC1=O` [RB-0006213] (cyclo(F[NMeK](DOTA(Lu))Y[dTpi][Ala(piperidin-4-yl)]T)), the Ki under setting [1] is 33.3 to 100 nM.
Still for that read-out and setting: then `C[C@@H](O)[C@@H]1NC(=O)[C@H](CC2CCNCC2)NC(=O)[C@@H]([C@@H](C)c2c[nH]c3ccccc23)NC(=O)[C@H](Cc2ccc(O)cc2)NC(=O)[C@H](CNC(=O)[C@H](CCC(=O)O)NC(=O)CN2CCN3CCN4CCN(CC2)CC(=O)[O][Lu]([O]C(=O)C3)[O]C(=O)C4)N(C)C(=O)[C@H](Cc2ccccc2)NC1=O` [RB-0006215] (cyclo(F[NMeDap]([Glu-DOTA(Lu)])Y[dTrp(βS-Me)][Ala(piperidin-4-yl)]T)), with 10 to 33.3 nM; and `C[C@@H](O)[C@@H]1NC(=O)N(CCCCN)NC(=O)[C@@H](Cc2c[nH]c3ccccc23)NC(=O)[C@H](Cc2ccc(O)cc2)NC(=O)[C@H](CCCCNC(=O)CN2CCN3CCN4CCN(CC2)CC(=O)[O][Lu]([O]C(=O)C3)[O]C(=O)C4)N(C)C(=O)[C@H](Cc2ccccc2)NC1=O` [RB-0006217] (cyclo(F[NMeK](DOTA(Lu))Y[dW][X13]T)), with under 1 nM.
Take `C[C@@H](O)[C@@H]1NC(=O)[C@H](CC2CCNCC2)NC(=O)[C@@H]([C@@H](C)c2c[nH]c3ccccc23)NC(=O)[C@H](Cc2ccc(Oc3ccccc3)cc2)NC(=O)[C@H](CCCCNC(=O)CN2CCN3CCN4CCN(CC2)CC(=O)[O][Lu]([O]C(=O)C3)[O]C(=O)C4)N(C)C(=O)[C@H](Cc2ccccc2)NC1=O` [RB-0006237] (cyclo(F[NMeK](DOTA(Lu))[Tyr(Ph)][dTrp(βS-Me)][Ala(piperidin-4-yl)]T)): the Ki under setting [1] lay within 3.33 to 10 nM.
As for `C[C@@H](O)[C@@H]1NC(=O)[C@H](CC2CCNCC2)NC(=O)[C@@H]([C@@H](C)c2c[nH]c3ccccc23)NC(=O)[C@H](C(c2ccccc2)c2ccccc2)NC(=O)[C@H](CCCCNC(=O)CN2CCN3CCN4CCN(CC2)CC(=O)[O][Lu]([O]C(=O)C3)[O]C(=O)C4)N(C)C(=O)[C@H](Cc2ccccc2)NC1=O` [RB-0006239] (cyclo([Dip][dTrp(βS-Me)][Ala(piperidin-4-yl)]TF[NMeK](DOTA(Lu)))), under setting [1], the Ki fell in the range of 10 to 33.3 nM.
As to `C[C@@H](O)[C@@H]1NC(=O)[C@H](CC2CCNCC2)NC(=O)[C@@H]([C@@H](C)c2c[nH]c3ccccc23)NC(=O)[C@H](Cc2ccc(O)cc2)NC(=O)[C@H](CCCCNC(=O)CN2CCN(CC(=O)O)CCN(CC(=O)O)CC2)N(C)C(=O)[C@H](Cc2ccccc2)NC1=O` [RB-0006286] (cyclo([NMeK](NOTA)Y[dTrp(βS-Me)][Ala(piperidin-4-yl)]TF)), the Ki under setting [1] was 1 to 3.33 nM.
With `C[C@@H](O)[C@@H]1NC(=O)[C@H](CCC(O)CN)NC(=O)[C@@H](Cc2c[nH]c3ccccc23)NC(=O)[C@H](Cc2ccc(O)cc2)NC(=O)[C@H](CCSCC(=O)NCCCCCCNC(=O)CN2CCN3CCN4CCN(CC2)CC(=O)[O][Lu]([O]C(=O)C3)[O]C(=O)C4)N(C)C(=O)[C@H](Cc2ccccc2)NC1=O` (some centres unmarked) [RB-0006317] (cyclo(F[NMehCys](DOTA(Lu)NH(CH2)6NHCOCH2)Y[dW][Lys(5ξ-OH)]T)), under setting [1], the Ki was under 1 nM.
Turning to `C[C@@H]1NC(=O)[C@H](CC2CCNCC2)NC(=O)[C@@H]([C@@H](C)c2c[nH]c3ccccc23)NC(=O)[C@H](Cc2ccc(O)cc2)NC(=O)[C@H](CCCCNC(=O)CN2CCN3CCN4CCN(CC2)CC(=O)[O][Lu]([O]C(=O)C3)[O]C(=O)C4)N(C)C(=O)[C@H](Cc2ccccc2)NC1=O` [RB-0006319] (cyclo(AF[NMeK](DOTA(Lu))Y[dTrp(βS-Me)][Ala(piperidin-4-yl)])), the Ki under setting [1] is under 1 nM.
`C[C@@H](O)[C@@H]1NC(=O)[C@H](CCC(O)CN)NC(=O)[C@H](Cc2c[nH]c3ccccc23)NC(=O)[C@H](Cc2ccc(O)cc2)NC(=O)[C@H](CCSCC(=O)NCCCCCCNC(=O)CN2CCN3CCN4CCN(CC2)CC(=O)[O][Lu]([O]C(=O)C3)[O]C(=O)C4)N(C)C(=O)[C@H](Cc2ccccc2)NC1=O` (some centres unmarked) [RB-0006385] (cyclo(F[NMehCys](DOTA(Lu)NH(CH2)6NHCOCH2)YW[Lys(5ξ-OH)]T)): the Ki under setting [1] is under 1 nM.
On the same count and under the same terms, as for `C[C@@H](O)[C@@H]1NC(=O)[C@H](CC2CCC(N)CC2)NC(=O)[C@@H]([C@@H](C)c2c[nH]c3ccccc23)NC(=O)[C@H](Cc2ccc(O)cc2)NC(=O)[C@H](CCCCNC(=O)CN2CCN3CCN4CCN(CC2)CC(=O)[O][Lu]([O]C(=O)C3)[O]C(=O)C4)N(C)C(=O)[C@H](Cc2ccccc2)NC1=O` (some centres unmarked) [RB-0006387] (cyclo(F[NMeK](DOTA(Lu))Y[dTrp(βS-Me)][X16]T)), the figure is under 1 nM.
With `C[C@@H](O)[C@@H]1NC(=O)[C@H](CC2CCNCC2)NC(=O)[C@@H]([C@@H](C)c2c[nH]c3ccccc23)NC(=O)[C@H](Cc2ccc(O)cc2)NC(=O)CN(CCCCCCNC(=O)CN2CCN3CCN4CCN(CC2)CC(=O)[O][Lu]([O]C(=O)C3)[O]C(=O)C4)C(=O)[C@H](Cc2ccccc2)NC1=O` [RB-0006389] (cyclo(F[N(6-aminohexyl)Gly](DOTA(Lu))Y[dTrp(βS-Me)][Ala(piperidin-4-yl)]T)), the Ki under setting [1] is under 1 nM.
Regarding `C[C@@H](c1c[nH]c2ccccc12)[C@H]1NC(=O)[C@@H](c2ccccc2)NC(=O)[C@@H]2C[C@@H](OC(=O)NCCNC(=O)CN3CCN(CC(=O)O)CCN(CC(=O)O)CCN(CC(=O)O)CC3)CN2C(=O)[C@H](Cc2ccccc2)NC(=O)[C@H](Cc2ccc(OCc3ccccc3)cc2)NC(=O)[C@H](CC2CCNCC2)NC1=O` [RB-0006391] (cyclo(F[Hyp]([CO-Ethylenediamine-DOTA])[dPhg][dTrp(βS-Me)][Ala(piperidin-4-yl)]Y(Bn))), the Ki under setting [2] was 33.3 to 100 nM.
As for `C[C@@H](c1c[nH]c2ccccc12)[C@H]1NC(=O)[C@H](Cc2ccc(O)cc2)NC(=O)[C@@H]2C[C@@H](OC(=O)NCCNC(=O)CN3CCN(CC(=O)O)CCN(CC(=O)O)CCN(CC(=O)O)CC3)CN2C(=O)[C@H](Cc2ccccc2)NC(=O)[C@H](Cc2ccc(OCc3ccccc3)cc2)NC(=O)[C@H](CC2CCNCC2)NC1=O` [RB-0006393] (cyclo(F[Hyp]([CO-Ethylenediamine-DOTA])Y[dTrp(βS-Me)][Ala(piperidin-4-yl)]Y(Bn))), the Ki under setting [2] is under 1 nM.
Regarding `C[C@@H](O)[C@@H]1NC(=O)[C@H](CC2CCNCC2)NC(=O)[C@@H]([C@@H](C)c2c[nH]c3ccccc23)NC(=O)[C@H](Cc2ccc(O)cc2)NC(=O)[C@@H]2C[C@@H](OC(=O)NCCNC(=O)CN3CCN4CCN5CCN(CC3)CC(=O)[O][Lu]([O]C(=O)C4)[O]C(=O)C5)CN2C(=O)[C@H](Cc2ccccc2)NC1=O` [RB-0006395] (cyclo(F[Hyp]([CO-Ethylenediamine-DOTA(Lu)])Y[dTrp(βS-Me)][Ala(piperidin-4-yl)]T)), the Ki under setting [1] was under 1 nM.
`C[C@@H](O)[C@@H]1NC(=O)[C@H](CC2CCNCC2)NC(=O)[C@@H]([C@@H](C)c2c[nH]c3ccccc23)NC(=O)[C@H](Cc2ccc(O)cc2)NC(=O)[C@H](CCCCNC(=O)CNC(=O)CN2CCN3CCN4CCN(CC2)CC(=O)[O][Lu]([O]C(=O)C3)[O]C(=O)C4)N(C)C(=O)[C@H](Cc2ccccc2)NC1=O` [RB-0006397] (cyclo(F[NMeK]([Gly-DOTA(Lu)])Y[dTrp(βS-Me)][Ala(piperidin-4-yl)]T)): the inhibition constant (Ki) under setting [1] was 1 to 3.33 nM.
In the case of `C[C@@H](O)[C@@H]1NC(=O)[C@H](CC2CCNCC2)NC(=O)[C@@H]([C@@H](C)c2c[nH]c3ccccc23)NC(=O)[C@H](Cc2ccc(O)cc2)NC(=O)[C@H](CCCCNC(=O)CCNC(=O)CN2CCN3CCN4CCN(CC2)CC(=O)[O][Lu]([O]C(=O)C3)[O]C(=O)C4)N(C)C(=O)[C@H](Cc2ccccc2)NC1=O` [RB-0006400] (cyclo(F[NMeK]([βAla-DOTA(Lu)])Y[dTrp(βS-Me)][Ala(piperidin-4-yl)]T)), the Ki under setting [1] was 1 to 3.33 nM.
The same measure, in the same setting: then `C[C@@H](O)[C@@H]1NC(=O)[C@H](CC2CCNCC2)NC(=O)[C@@H]([C@@H](C)c2c[nH]c3ccccc23)NC(=O)[C@H](Cc2ccc(O)cc2)NC(=O)[C@H](CCCCNC(=O)CCCNC(=O)CN2CCN3CCN4CCN(CC2)CC(=O)[O][Lu]([O]C(=O)C3)[O]C(=O)C4)N(C)C(=O)[C@H](Cc2ccccc2)NC1=O` [RB-0006403] (cyclo(F[NMeK]([GABA-DOTA(Lu)])Y[dTrp(βS-Me)][Ala(piperidin-4-yl)]T)), with 1 to 3.33 nM; and `C[C@@H](O)[C@@H]1NC(=O)[C@H](CC2CCNCC2)NC(=O)[C@@H]([C@@H](C)c2c[nH]c3ccccc23)NC(=O)[C@H](Cc2ccc(O)cc2)NC(=O)[C@H](CCCCNC(=O)CCCCNC(=O)CN2CCN3CCN4CCN(CC2)CC(=O)[O][Lu]([O]C(=O)C3)[O]C(=O)C4)N(C)C(=O)[C@H](Cc2ccccc2)NC1=O` [RB-0006406] (cyclo(F[NMeK]([Ava-DOTA(Lu)])Y[dTrp(βS-Me)][Ala(piperidin-4-yl)]T)), with 1 to 3.33 nM; and `C[C@@H](O)[C@@H]1NC(=O)[C@H](CN2CCNCC2)NC(=O)[C@@H]([C@@H](C)c2c[nH]c3ccccc23)NC(=O)[C@H](Cc2ccc(O)cc2)NC(=O)[C@H](CCCCNC(=O)CC[C@@H]2C(=O)[O][Ga]3[O]C(=O)CN4CCN(CCN2CC4)CC(=O)[O]3)N(C)C(=O)[C@H](Cc2ccccc2)NC1=O` [RB-0006414], with 1 to 3.33 nM.
As for `C[C@@H](O)[C@@H]1NC(=O)[C@H](CN2CCNCC2)NC(=O)[C@@H]([C@@H](C)c2c[nH]c3ccccc23)NC(=O)[C@H](Cc2ccc(O)cc2)NC(=O)[C@H](CCCCNC(=O)[C@H]2CC[C@H](CNC(=O)CN3CCN4CCN5CCN(CC3)CC(=O)[O][Lu]([O]C(=O)C4)[O]C(=O)C5)CC2)N(C)C(=O)[C@H](Cc2ccccc2)NC1=O` [RB-0006420] (cyclo(F[NMeK]([Trx-DOTA(Lu)])Y[dTrp(βS-Me)][Ala(piperazin-1-yl)]T)), the Ki under setting [1] is 1 to 3.33 nM.
